Values of other authors as cited in publication PMC10202811 (Nature Medicine, 2023).

Tests used:
[1] = test system: ALK-driven malignancies; set-up: method as in PMID 34780709; settings: children, 6/30; cited from earlier work
[2] = test system: inflammatory myofibroblastic tumors; settings: cited from earlier work

Row | SMILES | RR (complete/partial) [1] [%] | RR [2] [%]
1 | Cc1cc(Nc2ncc(Cl)c(Nc3ccccc3S(=O)(=O)C(C)C)n2)c(OC(C)C)cc1C1CCNCC1 [ceritinib] | 20 | 
2 | C[C@@H](Oc1cc(-c2cnn(C3CCNCC3)c2)cnc1N)c1c(Cl)ccc(F)c1Cl [crizotinib] |  | 86
